Among the data in patent US20230192705A1, “SHP2 INHIBITORS, COMPOSITIONS AND USES THEREOF” (Betta Pharmaceuticals Co., Ltd, priority 2020, published 2023) are IC50 values, retold here.

Structures are written as SMILES.

The test has as its target T1, SHP2 (Homo sapiens, UniProt Q06124).
T1 sequence (Q06124 1-593): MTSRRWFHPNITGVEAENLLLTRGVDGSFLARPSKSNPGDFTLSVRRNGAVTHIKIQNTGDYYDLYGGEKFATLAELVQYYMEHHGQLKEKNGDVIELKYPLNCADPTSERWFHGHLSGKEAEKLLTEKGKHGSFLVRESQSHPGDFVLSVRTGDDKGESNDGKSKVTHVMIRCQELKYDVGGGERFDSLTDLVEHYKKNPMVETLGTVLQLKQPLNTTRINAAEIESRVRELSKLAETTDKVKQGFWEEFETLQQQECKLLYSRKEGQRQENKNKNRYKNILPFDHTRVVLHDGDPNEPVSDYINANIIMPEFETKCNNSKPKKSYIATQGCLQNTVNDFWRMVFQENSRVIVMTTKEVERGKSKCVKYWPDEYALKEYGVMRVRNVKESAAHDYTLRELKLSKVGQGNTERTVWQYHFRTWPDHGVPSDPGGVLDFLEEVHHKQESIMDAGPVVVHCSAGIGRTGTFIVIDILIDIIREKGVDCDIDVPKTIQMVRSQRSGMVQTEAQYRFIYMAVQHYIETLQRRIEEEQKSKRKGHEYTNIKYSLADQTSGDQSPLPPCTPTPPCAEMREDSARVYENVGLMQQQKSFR
Briefly: SHP2 allosteric inhibitor enzyme activity assay (DiFMUP fluorescence). The settings on record: class symbols. The class given is biochemical. In outline:
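SHP2 activated by 0.5 μM IRS1_pY1172(dPEG8)pY1222 peptide, 0.2 ng enzyme per well, 1 h at room temperature with compound (1 μM top, 3-fold series), then DiFMUP substrate 1 h. Buffer: 60 mM HEPES, 75 mM NaCl, 75 mM KCl, 0.05% BRIJ-35, 1 mM EDTA, 5 mM DTT. Fluorescence ex 340/em 450 nm; IC50 by variable-slope fit.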

Take `CC1(C)C=C(c2n[nH]c3nc(N4CCC5(CC4)Cc4ccccc4[C@H]5N)[nH]c(=O)c23)c2sc(N)nc2C1` [Example 159, (S)-6-(1-amino-1,3-dihydrospiro[indene-2,4′-piperidin]-1′-yl)-3-(2-amino-5,5-dimethyl-4,5-dihydrobenzo[d]thiazol-7-yl)-1,5-dihydro-4H-pyrazolo[3,4-d]pyrimidin-4-one]: the IC50 was 20 to 60 nM.
Turning to `C[C@@H]1OCC2(CCN(C3=NC4=NCCN4C(N)=C3C3(c4ccccc4)CC3)CC2)[C@@H]1N` [Example 266, (3S,4S)-8-(5-amino-6-(1-phenylcyclopropyl)-2,3-dihydroimidazo[1,2-a]pyrimidin-7-yl)-3-methyl-2-oxa-8-azaspiro[4.5]decan-4-amine], the IC50 is more than 60 nM.
On to `N[C@@H]1c2ccccc2CC12CCN(c1nc3[nH]nc(C4(c5cccc6ccccc56)CC4)c3c(=O)[nH]1)CC2` [Example 77, (S)-6-(1-amino-1,3-dihydrospiro[indene-2,4′-piperidin]-1′-yl)-3-(1-(naphthalen-1-yl)cyclopropyl)-1,5-dihydro-4H-pyrazolo[3,4-d]pyrimidin-4-one], for which the IC50 is not above 20 nM.
`C[C@@H]1OCC2(CCN(c3nc4[nH]nc(C5(c6ccc(N)cc6)CC5)c4c(=O)[nH]3)CC2)[C@@H]1N` [Example 299, 6-((3S,4S)-4-amino-3-methyl-2-oxa-8-azaspiro[4.5]decan-8-yl)-3-(1-(4-aminophenyl)cyclopropyl)-1,5-dihydro-4H-pyrazolo[3,4-d]pyrimidin-4-one] yielded a 50% inhibitory concentration (IC50) of 20 to 60 nM.
The molecule `Cn1ccc2c1CCC=C2c1n[nH]c2nc(N3CCC4(CC3)Cc3ccccc3[C@H]4N)[nH]c(=O)c12` [Example 120, (S)-6-(1-amino-1,3-dihydrospiro[indene-2,4′-piperidin]-1′-yl)-3-(1-methyl-6,7-dihydro-1H-indol-4-yl)-1,5-dihydro-4H-pyrazolo[3,4-d]pyrimidin-4-one] came in with an IC50 not above 20 nM.
As for `C[C@@H]1OCC2(CCN(c3cnc4c(C5(c6ccsc6)CC5)n[nH]c4n3)CC2)[C@@H]1N` [Example 268, (3S,4S)-3-methyl-8-(3-(1-(thiophen-3-yl)cyclopropyl)-1H-pyrazolo[3,4-b]pyrazin-6-yl)-2-oxa-8-azaspiro[4.5]decan-4-amine], the figure is 20 to 60 nM.
With `N[C@@H]1c2ccccc2CC12CCN(c1nc3[nH]nc(C4=CCC5(CC5)c5ncccc54)c3c(=O)[nH]1)CC2` [Example 133, (S)-6-(1-amino-1,3-dihydrospiro[indene-2,4′-piperidin]-1′-yl)-3-(7′H-spiro[cyclopropane-1,8′-quinolin]-5′-yl)-1,5-dihydro-4H-pyrazolo[3,4-d]pyrimidin-4-one], the IC50 was not above 20 nM.
Consider `N[C@@H]1c2ccccc2CC12CCN(c1cnc3c([C@H]4C[C@H]4c4ccccc4)n[nH]c3n1)CC2` [Example 106, (S)-1′-(3-((1S,2R)-2-phenylcyclopropyl)-1H-pyrazolo[3,4-b]pyrazin-6-yl)-1,3-dihydrospiro[indene-2,4′-piperidin]-1-amine], for which the IC50 was not above 20 nM.
For `N[C@@H]1c2ccccc2CC12CCN(c1nc3[nH]nc(C4(c5ccnc(N6CCOCC6)c5)CC4)c3c(=O)[nH]1)CC2` [Example 31, (S)-6-(1-amino-1,3-dihydrospiro[indene-2,4′-piperidin]-1′-yl)-3-(1-(2-morpholinopyridin-4-yl)cyclopropyl)-1,5-dihydro-4H-pyrazolo[3,4-d]pyrimidin-4-one], the IC50 was 20 to 60 nM.
The molecule `N[C@@H]1c2ccccc2CC12CCN(c1nc3[nH]nc(C4(c5ccco5)CC4)c3c(=O)[nH]1)CC2` [Example 256, (S)-6-(1-amino-1,3-dihydrospiro[indene-2,4′-piperidin]-1′-yl)-3-(1-(furan-2-yl)cyclopropyl)-1,5-dihydro-4H-pyrazolo[3,4-d]pyrimidin-4-one] gave an IC50 not above 20 nM.
Molecule `C[C@@H]1OCC2(CCN(c3nc4[nH]nc(C5(c6ccc(OC(F)(F)F)cc6)CC5)c4c(=O)[nH]3)CC2)[C@@H]1N` [Example 307, 6-((3S,4S)-4-amino-3-methyl-2-oxa-8-azaspiro[4.5]decan-8-yl)-3-(1-(4-(trifluoromethoxy)phenyl)cyclopropyl)-1,5-dihydro-4H-pyrazolo[3,4-d]pyrimidin-4-one] gave an IC50 of 20 to 60 nM.
Molecule `N[C@@H]1c2ccccc2CC12CCN(c1nc3[nH]nc(C4=CCCc5ncccc54)c3c(=O)[nH]1)CC2` [Example 112, (S)-6-(1-amino-1,3-dihydrospiro[indene-2,4′-piperidin]-1′-yl)-3-(7,8-dihydroquinolin-5-yl)-1,5-dihydro-4H-pyrazolo[3,4-d]pyrimidin-4-one] registered an IC50 not above 20 nM.
As for `N[C@@H]1c2ccccc2CC12CCN(c1nc3[nH]nc(C4(c5nncs5)CC4)c3c(=O)[nH]1)CC2` [Example 239, (S)-3-(1-(1,3,4-thiadiazol-2-yl)cyclopropyl)-6-(1-amino-1,3-dihydrospiro[indene-2,4′-piperidin]-1′-yl)-1,5-dihydro-4H-pyrazolo[3,4-d]pyrimidin-4-one], the IC50 is not above 20 nM.
`N[C@@H]1c2ccccc2CC12CCN(c1nc3[nH]nc(C4=CCNc5ccccc54)c3c(=O)[nH]1)CC2` [Example 177, (S)-6-(1-amino-1,3-dihydrospiro[indene-2,4′-piperidin]-1′-yl)-3-(1,2-dihydroquinolin-4-yl)-1,5-dihydro-4H-pyrazolo[3,4-d]pyrimidin-4-one]: the half-inhibitory concentration (IC50) was not above 20 nM.
The result for `C[C@@H]1OCC2(CCN(c3nc4[nH]nc(C5(c6ccccc6F)CC5)c4c(=O)[nH]3)CC2)[C@@H]1N` [Example 294, 6-((3S,4S)-4-amino-3-methyl-2-oxa-8-azaspiro[4.5]decan-8-yl)-3-(1-(2-fluorophenyl)cyclopropyl)-1,5-dihydro-4H-pyrazolo[3,4-d]pyrimidin-4-one] reads 20 to 60 nM; that for `CSc1cccc(C2(c3n[nH]c4nc(N5CCC6(CC5)Cc5ccccc5[C@H]6N)[nH]c(=O)c34)CC2)c1` [Example 225, (S)-6-(1-amino-1,3-dihydrospiro[indene-2,4′-piperidin]-1′-yl)-3-(1-(3-(methylthio)phenyl)cyclopropyl)-1,5-dihydro-4H-pyrazolo[3,4-d]pyrimidin-4-one], not above 20 nM.
Molecule `N[C@@H]1c2ccccc2CC12CCN(c1nc3[nH]nc(C4(c5ccc(Cl)nn5)CC4)c3c(=O)[nH]1)CC2` [Example 69, (S)-6-(1-amino-1,3-dihydrospiro[indene-2,4′-piperidin]-1′-yl)-3-(1-(6-chloropyridazin-3-yl)cyclopropyl)-1,5-dihydro-4H-pyrazolo[3,4-d]pyrimidin-4-one] had an IC50 of 20 to 60 nM.
As for `Cn1ncc(-c2cccc(C3(c4n[nH]c5nc(N6CCC7(CC6)Cc6ccccc6[C@H]7N)[nH]c(=O)c45)CC3)c2)n1` [Example 37, (S)-6-(1-amino-1,3-dihydrospiro[indene-2,4′-piperidin]-1′-yl)-3-(1-(3-(2-methyl-2H-1,2,3-triazol-4-yl)phenyl)cyclopropyl)-1,5-dihydro-4H-pyrazolo[3,4-d]pyrimidin-4-one], the figure is not above 20 nM.
`COc1nccc(C2(c3n[nH]c4nc(N5CCC6(CC5)Cc5ccccc5[C@H]6N)[nH]c(=O)c34)CC2)c1Cl` [Example 62, (S)-6-(1-amino-1,3-dihydrospiro[indene-2,4′-piperidin]-1′-yl)-3-(1-(3-chloro-2-methoxypyridin-4-yl)cyclopropyl)-1,5-dihydro-4H-pyrazolo[3,4-d]pyrimidin-4-one] had an IC50 not above 20 nM.
